Where two headings read alike, the source gives them in different places. Peptide text beside a SMILES is read from it. * marks the point of attachment. Hexanoyl(6-maleimido) = O=C1C=CC(=O)N1CCCCCC(=O)*; Butanoyl(4-maleimido) = O=C1C=CC(=O)N1CCCC(=O)*; X47 = O=C1C=CC(=O)N1c1ccccc1CCCCC(=O)*; X62 = O=C1C=CC(=O)N1CCCCCCCCCCCCC(=O)*; X48 = O=C1C=CC(=O)N1CCCCCCCCCCCC(=O)*; X50 = O=C1C=CC(=O)N1c1ccc(CC(=O)*)cc1; X81 = O=C1C=CC(=O)N1c1ccccc1CCCC(=O)*; X77 = O=C1C=CC(=O)N1CCCCCCCCCCC(=O)*; X80 = O=C1C=CC(=O)N1c1ccccc1CCC(=O)*; X51 = O=C1C=CC(=O)N1c1ccccc1CC(=O)*; X67 = O=C1C=CC(=O)N1CCCCCCCCCC(=O)*; X82 = O=C1C=CC(=O)N1CCCCCCCCC(=O)*; X57 = O=C1C=CC(=O)N1CCCCCCCC(=O)*; X83 = O=C1C=CC(=O)N1CCCCCCC(=O)*; X45 = O=C1C=CC(=O)N1CCCCC(=O)*
Experiment: Half-lives and pharmacokinetic parameters of polypeptides vs HM-1
Conditions: in vivo
[1] = read-out: T1/2β (half-life) (converted)

C[C@H](NC(=O)CNC(=O)[C@H](CCCNC(=N)N)NC(=O)CCCN1C(=O)C=CC1=O)C(=O)N[C@@H](CC(=O)O)C(=O)N[C@@H](CCCNC(=N)N)C(=O)N[C@@H](C)C(=O)NCC(=O)NCC(=O)NCC(=O)NCC(=O)N[C@@H](CCCNC(=N)N)C(=O)NCC(=O)N[C@@H](CC(=O)O)C(=O)O [X3] ({Butanoyl(4-maleimido)}-RGADRAGGGGRGD-OH)
AUC(0-inf) (read-out: AUC0-∞): 33800 ± 7660 ng·h/mL
clearance (read-out: CL (converted)): 0.493 mL/min/kg
MRT inf (read-out: MRT0-∞): 60.5 ± 13.2 h
half-life [1]: 41.92 ± 0.32 h

C[C@H](NC(=O)CNC(=O)[C@H](CCCNC(=N)N)NC(=O)CCCCN1C(=O)C=CC1=O)C(=O)N[C@@H](CC(=O)O)C(=O)N[C@@H](CCCNC(=N)N)C(=O)N[C@@H](C)C(=O)NCC(=O)NCC(=O)NCC(=O)NCC(=O)N[C@@H](CCCNC(=N)N)C(=O)NCC(=O)N[C@@H](CC(=O)O)C(=O)O [X4] (X45-RGADRAGGGGRGD-OH)
AUC(0-inf) (read-out: AUC0-∞): 30100 ± 7330 ng·h/mL
clearance (read-out: CL (converted)): 0.553 mL/min/kg
MRT inf (read-out: MRT0-∞): 54 ± 10.5 h
half-life [1]: 37.44 ± 0.27 h

C[C@H](NC(=O)CNC(=O)[C@H](CCCNC(=N)N)NC(=O)CCCCCN1C(=O)C=CC1=O)C(=O)N[C@@H](CC(=O)O)C(=O)N[C@@H](CCCNC(=N)N)C(=O)N[C@@H](C)C(=O)NCC(=O)NCC(=O)NCC(=O)NCC(=O)N[C@@H](CCCNC(=N)N)C(=O)NCC(=O)N[C@@H](CC(=O)O)C(=O)O [X5] ({Hexanoyl(6-maleimido)}-RGADRAGGGGRGD-OH)
AUC(0-inf) (read-out: AUC0-∞): 27900 ± 7030 ng·h/mL
clearance (read-out: CL (converted)): 0.598 mL/min/kg
MRT inf (read-out: MRT0-∞): 49.9 ± 13.2 h
half-life [1]: 34.59 ± 0.29 h

C[C@H](NC(=O)CNC(=O)[C@H](CCCNC(=N)N)NC(=O)CCCCCCN1C(=O)C=CC1=O)C(=O)N[C@@H](CC(=O)O)C(=O)N[C@@H](CCCNC(=N)N)C(=O)N[C@@H](C)C(=O)NCC(=O)NCC(=O)NCC(=O)NCC(=O)N[C@@H](CCCNC(=N)N)C(=O)NCC(=O)N[C@@H](CC(=O)O)C(=O)O [X6] (X83-RGADRAGGGGRGD-OH)
AUC(0-inf): 30500 ± 7170 ng·h/mL
MRT inf: 54.6 ± 12.2 h
clearance: 0.547 mL/min/kg
half-life (T1/2β (half-life)): 37.86 ± 0.28 h

C[C@H](NC(=O)CNC(=O)[C@H](CCCNC(=N)N)NC(=O)CCCCCCCN1C(=O)C=CC1=O)C(=O)N[C@@H](CC(=O)O)C(=O)N[C@@H](CCCNC(=N)N)C(=O)N[C@@H](C)C(=O)NCC(=O)NCC(=O)NCC(=O)NCC(=O)N[C@@H](CCCNC(=N)N)C(=O)NCC(=O)N[C@@H](CC(=O)O)C(=O)O [X7] (X57-RGADRAGGGGRGD-OH)
AUC(0-inf): 34500 ± 6960 ng·h/mL
MRT inf: 61.8 ± 14.3 h
clearance: 0.485 mL/min/kg
half-life (T1/2β (half-life)): 42.83 ± 0.29 h

C[C@H](NC(=O)CNC(=O)[C@H](CCCNC(=N)N)NC(=O)CCCCCCCCN1C(=O)C=CC1=O)C(=O)N[C@@H](CC(=O)O)C(=O)N[C@@H](CCCNC(=N)N)C(=O)N[C@@H](C)C(=O)NCC(=O)NCC(=O)NCC(=O)NCC(=O)N[C@@H](CCCNC(=N)N)C(=O)NCC(=O)N[C@@H](CC(=O)O)C(=O)O [X8] (X82-RGADRAGGGGRGD-OH)
AUC(0-inf): 27900 ± 7570 ng·h/mL
MRT inf: 50 ± 12.6 h
clearance: 0.597 mL/min/kg
half-life (T1/2β (half-life)): 34.68 ± 0.31 h

C[C@H](NC(=O)CNC(=O)[C@H](CCCNC(=N)N)NC(=O)CCCCCCCCCN1C(=O)C=CC1=O)C(=O)N[C@@H](CC(=O)O)C(=O)N[C@@H](CCCNC(=N)N)C(=O)N[C@@H](C)C(=O)NCC(=O)NCC(=O)NCC(=O)NCC(=O)N[C@@H](CCCNC(=N)N)C(=O)NCC(=O)N[C@@H](CC(=O)O)C(=O)O [X9] (X67-RGADRAGGGGRGD-OH)
AUC(0-inf): 31200 ± 7350 ng·h/mL
MRT inf: 56 ± 13.3 h
clearance: 0.537 mL/min/kg
half-life (T1/2β (half-life)): 38.78 ± 0.31 h

C[C@H](NC(=O)CNC(=O)[C@H](CCCNC(=N)N)NC(=O)CCCCCCCCCCN1C(=O)C=CC1=O)C(=O)N[C@@H](CC(=O)O)C(=O)N[C@@H](CCCNC(=N)N)C(=O)N[C@@H](C)C(=O)NCC(=O)NCC(=O)NCC(=O)NCC(=O)N[C@@H](CCCNC(=N)N)C(=O)NCC(=O)N[C@@H](CC(=O)O)C(=O)O [X10] (X77-RGADRAGGGGRGD-OH)
AUC(0-inf): 31200 ± 7210 ng·h/mL
MRT inf: 55.8 ± 12.9 h
clearance: 0.535 mL/min/kg
half-life (T1/2β (half-life)): 38.64 ± 0.25 h

C[C@H](NC(=O)CNC(=O)[C@H](CCCNC(=N)N)NC(=O)CCCCCCCCCCCN1C(=O)C=CC1=O)C(=O)N[C@@H](CC(=O)O)C(=O)N[C@@H](CCCNC(=N)N)C(=O)N[C@@H](C)C(=O)NCC(=O)NCC(=O)NCC(=O)NCC(=O)N[C@@H](CCCNC(=N)N)C(=O)NCC(=O)N[C@@H](CC(=O)O)C(=O)O [X11] (X48-RGADRAGGGGRGD-OH)
AUC(0-inf): 25100 ± 8260 ng·h/mL
MRT inf: 44.9 ± 11.6 h
clearance: 0.665 mL/min/kg
half-life (T1/2β (half-life)): 31.08 ± 0.29 h

C[C@H](NC(=O)CNC(=O)[C@H](CCCNC(=N)N)NC(=O)CCCCCCCCCCCCN1C(=O)C=CC1=O)C(=O)N[C@@H](CC(=O)O)C(=O)N[C@@H](CCCNC(=N)N)C(=O)N[C@@H](C)C(=O)NCC(=O)NCC(=O)NCC(=O)NCC(=O)N[C@@H](CCCNC(=N)N)C(=O)NCC(=O)N[C@@H](CC(=O)O)C(=O)O [X12] (X62-RGADRAGGGGRGD-OH)
AUC(0-inf): 29200 ± 8180 ng·h/mL
MRT inf: 52.2 ± 9.78 h
clearance: 0.572 mL/min/kg
half-life (T1/2β (half-life)): 36.2 ± 0.25 h

C[C@H](NC(=O)CNC(=O)[C@H](CCCNC(=N)N)NC(=O)Cc1ccccc1N1C(=O)C=CC1=O)C(=O)N[C@@H](CC(=O)O)C(=O)N[C@@H](CCCNC(=N)N)C(=O)N[C@@H](C)C(=O)NCC(=O)NCC(=O)NCC(=O)NCC(=O)N[C@@H](CCCNC(=N)N)C(=O)NCC(=O)N[C@@H](CC(=O)O)C(=O)O [X13] (X51-RGADRAGGGGRGD-OH)
AUC(0-inf): 33600 ± 7340 ng·h/mL
MRT inf: 60 ± 12.5 h
clearance: 0.497 mL/min/kg
half-life (T1/2β (half-life)): 41.58 ± 0.34 h

C[C@H](NC(=O)CNC(=O)[C@H](CCCNC(=N)N)NC(=O)CCc1ccccc1N1C(=O)C=CC1=O)C(=O)N[C@@H](CC(=O)O)C(=O)N[C@@H](CCCNC(=N)N)C(=O)N[C@@H](C)C(=O)NCC(=O)NCC(=O)NCC(=O)NCC(=O)N[C@@H](CCCNC(=N)N)C(=O)NCC(=O)N[C@@H](CC(=O)O)C(=O)O [X14] (X80-RGADRAGGGGRGD-OH)
AUC(0-inf): 29100 ± 7660 ng·h/mL
MRT inf: 52 ± 13.5 h
clearance: 0.573 mL/min/kg
half-life (T1/2β (half-life)): 36.04 ± 0.32 h

C[C@H](NC(=O)CNC(=O)[C@H](CCCNC(=N)N)NC(=O)CCCc1ccccc1N1C(=O)C=CC1=O)C(=O)N[C@@H](CC(=O)O)C(=O)N[C@@H](CCCNC(=N)N)C(=O)N[C@@H](C)C(=O)NCC(=O)NCC(=O)NCC(=O)NCC(=O)N[C@@H](CCCNC(=N)N)C(=O)NCC(=O)N[C@@H](CC(=O)O)C(=O)O [X15] (X81-RGADRAGGGGRGD-OH)
AUC(0-inf): 34400 ± 8520 ng·h/mL
MRT inf: 61.5 ± 10 h
clearance: 0.485 mL/min/kg
half-life (T1/2β (half-life)): 42.65 ± 0.25 h

C[C@H](NC(=O)CNC(=O)[C@H](CCCNC(=N)N)NC(=O)CCCCc1ccccc1N1C(=O)C=CC1=O)C(=O)N[C@@H](CC(=O)O)C(=O)N[C@@H](CCCNC(=N)N)C(=O)N[C@@H](C)C(=O)NCC(=O)NCC(=O)NCC(=O)NCC(=O)N[C@@H](CCCNC(=N)N)C(=O)NCC(=O)N[C@@H](CC(=O)O)C(=O)O [X16] (X47-RGADRAGGGGRGD-OH)
AUC(0-inf): 31400 ± 8390 ng·h/mL
MRT inf: 56.3 ± 13.6 h
clearance: 0.53 mL/min/kg
half-life (T1/2β (half-life)): 39 ± 0.24 h

C[C@H](NC(=O)CNC(=O)[C@H](CCCNC(=N)N)NC(=O)Cc1ccc(N2C(=O)C=CC2=O)cc1)C(=O)N[C@@H](CC(=O)O)C(=O)N[C@@H](CCCNC(=N)N)C(=O)N[C@@H](C)C(=O)NCC(=O)NCC(=O)NCC(=O)NCC(=O)N[C@@H](CCCNC(=N)N)C(=O)NCC(=O)N[C@@H](CC(=O)O)C(=O)O [X37] (X50-RGADRAGGGGRGD-OH)
AUC(0-inf): 27200 ± 7210 ng·h/mL
MRT inf: 48.7 ± 13.6 h
clearance: 0.612 mL/min/kg
half-life (T1/2β (half-life)): 33.76 ± 0.28 h

— patent US20200270309A1, “MALEIMIDE GROUP-MODIFIED ANGIOGENESIS INHIBITOR HM-1 AND USE THEREOF” (NANJING ANJI BIOLOGICAL TECHNOLOGY CO., LTD, priority 2017, published 2020)
